Test results taken from US9605013B2, “Derivatives of hemin with antibacterial and antiviral activity” (OBSCHESTVO S OGRANICHENNOI OTVETSTVENNOSTIYU …, priority 2011, dated 2017).

Experiments:
[1] = Water solubility
[2] = system: Staphylococcus epidermidis No. 533; assay: Antibacterial specific activity, twofold dilutions, visual growth evaluation; type: cell-based; conditions: S. epidermis 533; 36° C., 24 hours
Protocol: (§1) The specific activity of compounds also was determined against bacteria strains such as Staphylococcus aureus No. 25923 ATCC (American Type Culture Collection); Staphylococcus aureus No. 100 KC; Staphylococcus epidermidis No. 533; Enterococcus faecalis No. 559; Enterococcus faecium No. 569, Staphylococcus aureus No. 5 (MRSA), Staphylococcus aureus No. 3797 (MRSA). Staphylococcus aureus was cultured on the Trypticase Soy Agar (BBL) commercially available dry medium. Enterococcus faecalis was cultured on the Columbia Agar (BBL) commercially available dry medium. These media were sterilized by autoclaving at 121° C. for 15 min. Bacterial inoculum was constant and was 5×10^5 CFU/ml (10^5 CFU/0.2 ml). For water-soluble compounds, wells from 2nd through 8th were added with the solvent (water) in an amount of 15 μL per well, then the 1st well was added with 30 μL of the stock solution of the tested compound in […] with a concentration of […], and the concentration was adjusted to 0.007×10^3 M by serial twofold dilutions. A 10-μL portion was taken from every well, and 190 μL of the bacterial culture (10^5 CFU) was added per well. For DMSO-soluble compounds, wells from 2nd through 8th were added with the solvent (DMSO) in an amount of 10 μL per well, then the 1st well was added with 20 μL of the stock solution of the tested compound in […] with a concentration of […], and the concentration was adjusted to 0.039×10^3 M by serial twofold dilutions. A 2-μL portion was taken from each well, and 198 μL of the bacterial culture (10^5 CFU) was added per well.
(§2) The control comprised wells free of tested compounds (culture growth control). In addition, purity control of nutritional media and solvents was used. Plates were incubated in a thermostat at 36° C. for 24 hours.
(§3) Culture growth was evaluated visually by comparison of how microorganisms grew in the presence of tested compounds and in the absence of them. MIC was set equal to the last dilution of a tested agent which suppressed bacterial culture growth.

[3] = system: Enterococcus faecalis No. 559; assay: as above; type: cell-based; conditions: E. faecalis 559; 36° C., 24 hours
Protocol: as §1, §2, §3

[4] = system: Escherichia coli 4300; assay: as above; type: cell-based; conditions: E. coli 4300; 36° C., 24 hours
Protocol: [Worded in the source for another organism; this organism is reported under the same test.] as §1, §2, §3

[5] = system: Staphylococcus aureus No. 100 KC; assay: as above; type: cell-based; conditions: S. aureus 100 KC; 36° C., 24 hours
Protocol: as §1, §2, §3

[6] = system: Staphylococcus aureus No. 5 (MRSA); assay: as above; type: cell-based; conditions: St. aur No. 5 MRSA; 36° C., 24 hours
Protocol: as §1, §2, §3

[7] = system: Vancomycin-resistant Enterococcus faecium 569; assay: as above; type: cell-based; conditions: Vancomycin-resistant E. faecium 569; 36° C., 24 hours
Protocol: as §1, §2, §3

[8] = system: Staphylococcus aureus No. 25923 ATCC; assay: as above; type: cell-based; conditions: S. aureus 25923; 36° C., 24 hours
Protocol: as §1, §2, §3

[9] = system: Staphylococcus aureus No. 3797 (MRSA); assay: as above; type: cell-based; conditions: St. aur No. 3797 MRSA; 36° C., 24 hours
Protocol: as §1, §2, §3

[10] = system: Herpes Simplex Virus type 2 strain G (No. VR-734 ATCC); assay: Antiviral activity, virus cytopathogenic action in Vero cells; type: cell-based; set-up: key: 0: CPA (cytopathogenic action) is not detected; 1: up to 25% virus-infected monolayer; from 25% to 50%; 3: from 50% to 75%; 4: from 75% to 100%; conditions: 48 hours
Protocol: […] used in the study were used Herpes Simplex Virus type 1 (the Collection of Microorganisms at the Scientific Research Institute of Virology, strain EC), Herpes Simplex Virus type 2 strain G (No. VR-734 ATCC), and human cytomegalovirus strain AD169 (No. VR-538 ATCC). Herpes Simplex viruses type 1 and type 2 were cultured in Vero cells. The cells were incubated in MEM Eagle growth medium (MEM, BioloT, St-Petersburg, 1.3.3) supplemented with 10% fetal bovine serum (BioloT, St-Petersburg, 1.3.12) in Sanyo MCO-15AC gas-flow thermostat (37° C., 5% CO2) (Tokyo, Japan). A seed dose was 2×10^5 cells/ml in the starting inoculum or 2×10^4 cells/well. Herpes Simplex viruses were cultured under the same conditions in the MEM medium without serum (maintenance medium). Starting viral titers were 10^7 TCID50/ml.
For DMSO-soluble preparations, stock solutions were prepared in a concentration of 10 mM in DMSO. For water-soluble preparations, a stock solution prepared had the same concentration in the MEM medium (Minimal Essential Medium) for cell cultures. To control cytotoxicity (see below), the stock solution was diluted in the medium to a concentration of 100 μM and ten-fold serial dilutions of the preparations were made in the MEM medium (for DMSO-soluble compounds—in the MEM medium comprising 3% DMSO). The following concentrations of the preparations were used in the study of […]: if toxicity was not found, the concentrations of 100 μM preparations were 100, 10 and 1 μM; if toxicity was detected, the concentrations of 100 μM preparations were 10, 1, and 0.1 μM. Acyclovir (10 μg/ml) was used for Herpes Simplex viruses of both types as a reference preparation to control the viral model validity.
To study antiviral activity, plate wells with a cell monolayer were added with the preparations in an amount of 0.1 ml/well. To compensate a reduction in the concentration of the preparations, which takes place in the following addition of viruses, twofold concentrations of compounds (i.e. 200, 20 and 2 or 20, 2 and 0.2 μM for […] concentrations of 100 μM preparations, respectively) were used, incubated for an hour and then were infected with the examined 0.1 ml/well viruses in doses 1, 10 and 100 TCID50 (50% tissue infectious dose).
The virus-specific cytogenic action was manifested in an increase in the size of cells, their rounding, and detachment from a substrate. These morphological characteristics served as their marked difference from the cells subjected to a toxic action of high concentrations of the examined preparations. The latter acquired spindle-like shape, lost contacts with neighboring cells of the monolayer, and their boundaries became more distinct.
Intensity of the virus-specific changes in the cells were semi-quantified using a 4-score system: 0—CPA (cytopathogenic action) is not detected; 1—up to 25% virus-infected monolayer; 2—from 25% to 50%; 3—from 50% to 75%; and 4—from 75% to 100%. The antiviral activity of a compound was evaluated according to their ability to reduce the manifestation of cytopathogenic action in the plate wells compared to the control values. Differences with the control values by 1 score and more were considered to be significant.

[11] = system: Micrococcus luteus BKM Ac-2230; assay: Antibacterial activity, serial dilutions in liquid MH medium; type: cell-based; conditions: for MIC: MH medium, 20 h, 37° C., 100% growth inhibition; for MBC: no colonies on agarized MH medium
Protocol: (§4) The antibacterial activity of the compounds was determined against strains of gram-positive bacteria such as Staphylococcus aureus 209P, Enterococcus faecalis BKM B-871, Micrococcus luteus BKM Ac-2230, Bacillus subtilis BKM B-501, and gram-negative bacteria such as Pseudomonas aeruginosa PAO1 and Escherichia coli KM MGU C-600. BKM strains were acquired from the All-Russia Collection of Microorganisms at the Institute for Biochemistry and Physiology of Microorganisms, Russian Academy of Sciences. Strain Staphylococcus aureus 209P was acquired from the Collection of Microorganisms at the Department of microbiology of the Faculty of Biology of Lomonosov Moscow State University, and Pseudomonas aeruginosa PAO1 was acquired from the Collection of Microorganisms at the Institute of Bioorganic Chemistry of the Russian Academy of Sciences.
(§5) The main parameters characterizing the antibacterial activity are the minimal inhibitory concentration (MIC) and minimal bactericidal concentration (MBC). […] MBC is the least concentration that causes the death of all cells.
(§6) MIC was quantified by inhibiting culture growth in a liquid medium with serial dilutions of compounds using a modified procedure [Amsterdam, D., 1966. “Susceptibility testing of antimicrobials in liquid media,” pp. 52-111. In Loman, V., ed. Antibiotics in laboratory medicine, 4th ed. Williams and Wilkins, Baltimore].
(§7) Bacteria were cultured and tested on an MH liquid medium (Mueller-Hinton medium: a dry extract of beef broth, 4 g/L; starch, 1.5 g/L; casein hydrolyzate, 17.5 g/L; Sigma-Fluka Catalog No. 70192) at 37° C., 100% humidity, and under stirring. Cultures (within 4 to 7 passages after thawing) in the exponential growth phase were used for tests.
(§8) All tested compounds absorb light at 595 nm, a wavelength used for evaluating bacterial culture growth. Therefore, a correction for absorption was applied in estimating the optical density of bacterial suspensions for each compound with account for its concentration in the well. Bacterial growth inhibition (GI) as percentage after 20 hours of incubating cells with compounds was derived from the optical density (A) measured in every well at a wavelength of 595 nm using the equation: GIi=[(Act−Ac0)−(Ait−Ai0)]×100/(Act−Ac0), (1) wherein the subscripts have the following meanings: i denotes the well number, c denotes a control well with bacteria whereto the tested compound is not inserted, 0 refers to the measurement taken immediately once the tested compound was inserted to the well, and t refers to the measurement taken 20 hours after the compound was inserted.
(§9) The protocol for the determination of experimental antibacterial activity of the tested compounds was as follows. A cryovial with the test strain culture in a medium with 7% DMSO stored in liquid nitrogen, was rapidly defrosted, and 1.5 mL of the fresh MH medium was inoculated with 100 μL of the cell suspension. Cells were grown for one day at 37° C. and stirred on an orbital shaker at 150 rpm. The morphologic features of the strain and the absence of contamination with foreign bacteria were verified by: (a) inoculation on an agarized (15 g/L agar) MH medium and observation of the shape and color of the grown colonies and (b) examination of characteristic morphologic features under a microscope (Mikmed-2, LOMO, Russia) equipped with a 40× objective lens. Further, the bacteria were cultured in 1 mL of the liquid MH medium at 37° C. under stirring. The cells were reseeded every day. Cell cultures were used in tests starting with 3rd reseeding and ending with 6th one.
(§10) For testing, 5 μL of a bacterial suspension in the stationary growth phase was transferred to 1 mL of a sterile MH medium and incubated until the exponential growth phase was attained (3 to 5 h, 37° C., stirring at 150 rpm). To estimate the microorganism concentration, the optical density (A) of the resulting bacterial culture was measured at a wavelength of 595 nm. […]

[12] = system: Bacillus subtilis BKM B-501; assay: as above; type: cell-based; conditions: for MIC: MH medium, 20 h, 37° C., 100% growth inhibition
Protocol: as §4, §5, §6, §7, §8, §9, §10

[13] = system: Enterococcus faecalis BKM B-871; assay: as above; type: cell-based; conditions: MH medium, 20 h, 37° C., 100% growth inhibition
Protocol: as §4, §5, §6, §7, §8, §9, §10

[14] = HSV-2, virus dose 1, concentration 0.1 μM
[15] = HSV-2, virus dose 1, concentration 1 μM
[16] = HSV-2, virus dose 1, concentration 10 μM
[17] = HSV-2, virus dose 10, concentration 0.1 μM
[18] = HSV-2, virus dose 10, concentration 1 μM
[19] = HSV-2, virus dose 10, concentration 10 μM
[20] = HSV-2, virus dose 100, concentration 0.1 μM
[21] = HSV-2, virus dose 100, concentration 1 μM
[22] = HSV-2, virus dose 100, concentration 10 μM

Substance	water solubility [1]	MIC [2] [µM]	MIC [3] [µM]	MIC [4] [µM]	MIC [5] [µM]	MIC [6] [µM]	MIC [7] [µM]	MIC [8] [µM]	MIC [9] [µM]	manifestation of the virus CPA [10, 14]	manifestation of the virus CPA [10, 15]	manifestation of the virus CPA [10, 16]	manifestation of the virus CPA [10, 17]	manifestation of the virus CPA [10, 18]	manifestation of the virus CPA [10, 19]	manifestation of the virus CPA [10, 20]	manifestation of the virus CPA [10, 21]	manifestation of the virus CPA [10, 22]	MIC [11] [µM]	MBC [11] [µM]	other results
6,7-bis-[(Diamide N^α-L-Glycyl)-L-glutamyl]-Protohemin (IX) [XIII]	water-soluble	12.5	12.5	>50.0	12.5	83	>50.0	12.5	50	1 (up to 25% virus-infected monolayer)	1 (up to 25% virus-infected monolayer)	0.5 scores	2 (from 25% to 50%)	2 (from 25% to 50%)	1^1 (up to 25% virus-infected monolayer)	3 (from 50% to 75%)	3 (from 50% to 75%)	3 (from 50% to 75%)	–	–	–
6,7-bis-[(Dimethyl Ester N^α-L-Glycyl)-L-glutamyl]-Protohemin (IX) [XIV]	water-insoluble	1.04	3.12	>50.0	2.6	3.12	>50.0	0.39	2.6	–	–	–	–	–	–	–	–	–	1.6	6.3	MIC [12]: 6.3 µM; MBC ([12]; no colonies on agarized MH medium): 25 µM
6,7-bis-[(Dimethyl Ester N^α-L-Seryl)-L-glutamyl]-Protohemin (IX)	water-soluble	–	–	–	–	–	–	–	–	1 (up to 25% virus-infected monolayer)	1 (up to 25% virus-infected monolayer)	0^1	2 (from 25% to 50%)	2 (from 25% to 50%)	1.5 scores	3 (from 50% to 75%)	3 (from 50% to 75%)	3 (from 50% to 75%)	12.5	25	MIC [13]: 50 µM; MIC [12]: 50 µM
